The target in data set [1] is T1, human adenosine A1 receptor (Homo sapiens, UniProt P30542).
T1 sequence (P30542 1-326): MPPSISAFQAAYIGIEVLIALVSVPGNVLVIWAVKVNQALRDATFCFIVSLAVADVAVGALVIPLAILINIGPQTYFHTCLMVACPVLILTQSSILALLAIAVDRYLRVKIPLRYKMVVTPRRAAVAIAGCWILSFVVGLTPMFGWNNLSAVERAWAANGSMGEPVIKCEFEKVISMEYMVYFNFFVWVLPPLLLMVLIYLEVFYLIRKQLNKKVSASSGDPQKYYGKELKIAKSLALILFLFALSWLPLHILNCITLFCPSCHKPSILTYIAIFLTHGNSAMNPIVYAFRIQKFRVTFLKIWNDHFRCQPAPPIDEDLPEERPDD
Put plainly: Yeast β-Galactosidase reporter gene assay, inhibition of NECA-induced activity, strain CY12660.

Data set [2] concerns the target T2, human A1 receptor subtype (Homo sapiens, UniProt P30542).
T2 sequence (P30542 1-326): T1 sequence (P30542 1-326)
Put plainly: biochemical.

Data set [3] concerns the target T2, human A1 receptor subtype. To be noted: Table 13; concentration not given.
The target in data set [4] is T3, human A2a receptor subtype (Homo sapiens, UniProt P29274).
T3 construct: expressed in transfected cells; host or cells: HEK-293 (Cadus clone #5), membranes
T3 sequence (P29274 whole entry): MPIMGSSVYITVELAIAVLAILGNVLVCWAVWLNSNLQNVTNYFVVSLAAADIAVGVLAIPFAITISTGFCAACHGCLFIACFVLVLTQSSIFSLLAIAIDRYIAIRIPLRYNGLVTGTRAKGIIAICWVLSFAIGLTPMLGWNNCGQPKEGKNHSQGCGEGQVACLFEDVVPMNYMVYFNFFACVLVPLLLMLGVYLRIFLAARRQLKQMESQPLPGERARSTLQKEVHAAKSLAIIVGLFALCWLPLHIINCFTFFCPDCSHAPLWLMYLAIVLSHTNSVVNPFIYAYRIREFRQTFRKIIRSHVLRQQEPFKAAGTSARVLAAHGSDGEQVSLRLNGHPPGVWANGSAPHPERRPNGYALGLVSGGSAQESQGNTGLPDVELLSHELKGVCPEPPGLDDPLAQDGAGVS
Put plainly: Adenosine 2a receptor subtype competition radioligand binding, [3H]CGS-21680, HEK293 membranes. To be noted: Table 13; concentration not given.

The next data set deals with A1 adenosine receptor (Homo sapiens, UniProt P30542). To be noted: cited from earlier work.
The target of the next data set is T4, human A3 receptor (Homo sapiens, UniProt P0DMS8).
T4 sequence (P0DMS8 1-318): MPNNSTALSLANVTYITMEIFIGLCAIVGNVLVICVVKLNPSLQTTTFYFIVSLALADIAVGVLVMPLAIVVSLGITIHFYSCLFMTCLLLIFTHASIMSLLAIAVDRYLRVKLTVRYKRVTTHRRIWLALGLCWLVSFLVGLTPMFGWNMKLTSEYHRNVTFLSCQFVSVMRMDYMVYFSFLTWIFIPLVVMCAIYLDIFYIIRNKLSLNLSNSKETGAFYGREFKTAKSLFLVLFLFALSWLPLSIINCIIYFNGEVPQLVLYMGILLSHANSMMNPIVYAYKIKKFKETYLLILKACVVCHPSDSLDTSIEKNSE
Briefly: Displacement binding of [3H]CPX, yeast membranes expressing hA3R.

In data set [5] the target is T5, human A1 adenosine receptor (Homo sapiens, UniProt P30542).
T5 sequence (P30542 1-326): T1 sequence (P30542 1-326)
Briefly: Displacement binding of [3H]CPX, yeast membranes expressing hA1R.

Data set [6] addresses T6, human A2b receptor subtype (Homo sapiens, UniProt P29275).
T6 construct: expressed in transfected cells; host or cells: HEK293, membranes
T6 sequence (P29275 1-332): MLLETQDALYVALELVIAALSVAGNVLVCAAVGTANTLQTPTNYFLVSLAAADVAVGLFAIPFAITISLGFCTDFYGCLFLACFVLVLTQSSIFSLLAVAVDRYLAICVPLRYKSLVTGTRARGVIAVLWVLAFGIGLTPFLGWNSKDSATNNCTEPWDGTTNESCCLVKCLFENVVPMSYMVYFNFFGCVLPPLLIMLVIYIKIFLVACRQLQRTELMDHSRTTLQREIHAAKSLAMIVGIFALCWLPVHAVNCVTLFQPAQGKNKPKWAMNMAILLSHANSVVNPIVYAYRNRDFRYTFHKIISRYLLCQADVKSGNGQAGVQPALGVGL
Briefly: Adenosine 2b receptor subtype competition radioligand binding, [3H]DPCPX, HEK293 membranes. The following applies: Table 13.

Data set [7] has as its target T7, human A3 receptor subtype (Homo sapiens, UniProt P0DMS8).
T7 sequence (P0DMS8 1-318): T4 sequence (P0DMS8 1-318)
Put plainly: Adenosine 3 receptor competition radioligand binding, [125I]AB-MECA, HEK293 membranes.

The mark [8] stands for this setting: A1 Yeast IC50 (nM), Table 10, Effect of N6-Substituent.
The mark [9] stands for this setting: A1 Binding Ki (nM), Table 10, Effect of N6-Substituent.
Where [10] appears, read: A1 Yeast IC50 (nM), Table 6, Effect of N6-Substituent.
Setting [11] is: A1 Binding Ki (nM), Table 6, Effect of N6-Substituent.

Structures are written as SMILES. Where two headings read alike, the source gives them in different places. Where only a bound is given, the exact number is not on record here.

A word on the IC50: it is the concentration needed to halve the response being measured. The Ki is a dissociation constant, usually derived from enzyme kinetics or from competition with a known ligand. Higher therefore signals a looser hold on the target. In the case of `Cc1[nH]c2nc(-c3ccccc3)nc(NCCNC(=O)C3CC3)c2c1C` [Compound 1004], the IC50 in [1] (setting [8]) is 546 nM. The compound further registered a Ki in data set [2] (setting [9]) of 32.8 nM.
Compound `Cc1[nH]c2nc(-c3ccccc3)nc(NCCNC=O)c2c1C` [Compound 1001] had an IC50 in [1] (setting [8]) of 1870 nM. In data set [2] (setting [9]), this compound had an inhibition constant Ki of 54.4 nM.
In the case of `CC(=O)NC(C)CNc1nc(-c2ccccc2)nc2[nH]c(C)c(C)c12` (stereo not shown) [Compound 1104], the IC50 in data set [1] (A1 Yeast IC50 (nM), Table 11, Effect of N6-Substituent) worked out at 58.7 nM.
`Cc1[nH]c2nc(-c3ccccc3)nc(NCCNC(=O)C3(N)CC3)c2c1C` [Compound 1313]: the “Binding A1, value printed in %” value in [3] turned out to be 30%. Also, the “Binding A2a, value given in %” value in data set [4] came out at 65%.
On to `CC(=O)C(=O)NCCNc1nc(-c2ccccc2)nc2[nH]c(C)c(C)c12` [Compound 1006], for which the IC50 in [1] (setting [8]) is 2920 nM. Further, in data set [2] (setting [9]), the Ki was 152 nM.
Consider `Cc1[nH]c2nc(-c3ccccc3)nc(NC3CCC(NS(C)(=O)=O)CC3)c2c1C` (stereo not shown) [Compound 604], for which the IC50 in [1] (setting [10]) is above 10000 nM.
`CC(Cc1ccccc1)Nc1ncnc2c1ncn2[C@@H]1O[C@H](CO)[C@@H](O)[C@H]1O` (single isomer, unassigned; (-)) [PIA, (−)-N6-(2-phenylisopropyl)-adenosine]: the reported affinity result on A1 adenosine receptor is given as “approximately 50 nM”.
With `Cc1c(C)n(C)c2nc(-c3ccccc3)nc(N[C@H]3CC[C@H](O)CC3)c12` [Compound 800], the IC50 in data set [1] is above 10000 nM. In addition, the affinity in data set [2], expressed as Ki, was 3310 nM.
Turning to `Cc1[nH]c2nc(C3CCCC3)nc(N[C@H]3CC[C@H](O)CC3)c2c1C` [Compound 703], in data set [1] (A1 Yeast IC50 (nM), Table 7, Effect of C2-Substituent), the IC50 is above 10000 nM. Moreover, the Ki in [2] (A1 Binding Ki (nM), Table 7, Effect of C2-Substituent) came out at 444 nM.
For `Cc1[nH]c2nc(-c3ccccc3)nc(NCCNC(=O)CCC(=O)O)c2c1C` [Compound 1008], the half-inhibitory concentration (IC50) in data set [1] (setting [8]) stood at 3220 nM. In data set [2] (setting [9]), this compound gave a Ki of 93.1 nM.
The compound `Cc1[nH]c2nc(-c3ccccc3)nc(NCCNC(=O)C(C)C)c2c1C` [Compound 1005] yielded an IC50 in data set [1] (setting [8]) of 3970 nM. The compound also came in with a Ki in data set [2] (setting [9]) of 147 nM.
Compound `Cc1[nH]c2nc(-c3ccccc3)nc(NC3CCC(OC(=O)c4ccccc4)CC3)c2c1C` (stereo not shown) [Compound 606] came in with an IC50 in data set [1] above 10000 nM.
As to `Cc1[nH]c2nc(-c3ccccc3)nc(NCCNS(C)(=O)=O)c2c1C` [Compound 1007], the Ki in data set [2] (setting [9]) was found to be 692 nM.
In data set [1] (setting [8]), `CCC(=O)NCCNc1nc(-c2ccccc2)nc2[nH]c(C)c(C)c12` [Compound 1003] yielded an IC50 of 196 nM. The compound further registered a Ki in data set [2] (setting [9]) of 26.7 nM.
With `Cc1[nH]c2nc(-c3ccccc3)nc(NCCCCO)c2c1C` [Compound 1016], the concentration for half-maximal inhibition (IC50) in data set [1] (setting [8]) was determined as 5050 nM. The Ki in data set [2] (setting [9]) worked out at 176 nM.
For `CC(=O)OCCNc1nc(-c2ccccc2)nc2[nH]c(C)c(C)c12` [Compound 1011] the same measures were 2070 nM and 122 nM.
`Cc1[nH]c2nc(-c3ccccc3)nc(NCCO)c2c1C` [Compound 1014] had an IC50 in data set [1] (setting [8]) of 2000 nM. Moreover, the affinity in data set [2] (setting [9]), expressed as Ki, was 385 nM.
`CC(=O)NC1CCC(Nc2nc(-c3ccccc3)nc3[nH]c(C)c(C)c23)CC1` (stereo not shown) [Compound 605] showed an IC50 in [1] (setting [10]) above 10000 nM. In [2] (setting [11]), this compound returned a Ki above 10000 nM.
Broadly, the melting point is the temperature, or range, at which the solid turns liquid. In turn, `CC(=O)NCCNc1nc(-c2ccccc2)nc2[nH]c(COc3ccccc3)cc12` [Example 17, 4-(2-acetylaminoethyl)amino-6-phenoxymethyl-2-phenyl-7H-pyrrolo[2,3d]pyrimidine] gave a melting point of 196 to 197 °C.
Turning to `Cc1c(C)n(C(C)c2ccccc2)c2nc(-c3ccccc3)nc(NCC(C)C)c12` (stereo not shown) [Compound 903], in data set [2] (A1 Binding Bi (nM), Table 9), the Ki is 35.3 nM.
Compound `CCC(=O)NCCCNc1nc(-c2ccccc2)nc2[nH]c(C)c(C)c12` [Compound 1013] displayed an IC50 in data set [1] (setting [8]) of 3010 nM. The affinity in data set [2] (setting [9]), expressed as Ki, was 270 nM.
In turn, `Cc1[nH]c2nc(-c3ccccc3)nc(N[C@@H]3CCC[C@H]3O)c2c1C` [Compound 614] gave a Ki in data set [2] (setting [11]) of 32.1 nM.
As to `O=c1nc2[nH]c3ccccc3nc-2c(=O)[nH]1` [Alloxazine], the IC50 on human A3 receptor worked out at 8220 nM; in data set [5] it was 1070 nM.
For the compound `CC(=O)NCCCNc1nc(-c2ccccc2)nc2[nH]c(C)c(C)c12` [Compound 1010], in data set [1] (setting [8]), the IC50 was found to be 9380 nM. The compound further registered a Ki in data set [2] (setting [9]) of 675 nM.
For `CC(=O)NCCCCNc1nc(-c2ccccc2)nc2[nH]c(C)c(C)c12` [Compound 1311], the Ki in data set [6] was 736 nM; in [7] it was 5.3 nM.
In data set [2], `Cc1[nH]c2nc(-c3ccc(F)cc3)nc(NC3CCC(O)CC3)c2c1C` (stereo not shown) [Compound 707] had a Ki of 62.8 nM.
Consider `Cc1[nH]c2nc(-c3ccccc3)nc(NCCNC(=O)CCN)c2c1C` [Compound 1009], for which the Ki in [2] (setting [9]) is 475 nM.
For `CNC(=O)NCCCNc1nc(-c2ccccc2)nc2[nH]c(C)c(C)c12` [Compound 1310], the “Binding A2a, value given in %” value in data set [4] came out at 76%.
For `Cc1[nH]c2nc(-c3ccccc3)nc(NC3CCC(OC(=O)c4ccccc4)CC3)c2c1C` (stereo not shown) [Compound 611], the IC50 in data set [1] (read-out: A1 Yeast IC50, Table 6, Effect of N6-Substituent) was above 10000 nM.

(Values after patent US6686366B1, “Compounds specific to adenosine A3 receptor and uses thereof” (OSI Pharmaceuticals, Inc., priority 1998, dated 2004).)
